Source: ChEMBL document CHEMBL4706484, “Apigenin-rivastigmine hybrids as multi-target-directed liagnds for the treatment of Alzheimer's disease” (Eur J Med Chem, 2020)
Active and inactive are the calls of the source. The calls are words filed in the database; no cut-off is given here.

Columns and labels:
Cholinesterase [1] = molecular target: T1, Cholinesterase (Homo sapiens, UniProt P06276); test: Pseudo-irreversible inhibition of human serum BChE assessed as enzyme recovery activity at 0.1 times IC50 using diluted compound relative to control; assay type: cell-free; design: scale not given: the % may be the effect or the level left
T1 sequence (P06276 whole entry): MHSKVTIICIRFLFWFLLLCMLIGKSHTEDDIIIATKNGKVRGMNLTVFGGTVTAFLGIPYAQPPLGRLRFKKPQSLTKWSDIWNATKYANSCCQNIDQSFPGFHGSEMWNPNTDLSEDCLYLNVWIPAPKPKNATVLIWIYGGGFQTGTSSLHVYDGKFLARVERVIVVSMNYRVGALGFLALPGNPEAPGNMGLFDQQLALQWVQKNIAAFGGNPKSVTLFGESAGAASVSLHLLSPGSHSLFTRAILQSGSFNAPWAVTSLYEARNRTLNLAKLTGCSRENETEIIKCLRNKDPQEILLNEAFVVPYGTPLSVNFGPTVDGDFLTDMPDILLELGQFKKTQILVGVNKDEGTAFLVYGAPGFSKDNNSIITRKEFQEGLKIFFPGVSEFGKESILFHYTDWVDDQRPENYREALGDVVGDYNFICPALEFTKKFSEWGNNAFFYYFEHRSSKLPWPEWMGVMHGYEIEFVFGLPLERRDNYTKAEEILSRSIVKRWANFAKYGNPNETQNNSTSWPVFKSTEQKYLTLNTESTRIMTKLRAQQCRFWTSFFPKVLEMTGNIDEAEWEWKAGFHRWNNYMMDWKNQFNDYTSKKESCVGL

Cholinesterase [2] = molecular target: T1, Cholinesterase; test: Pseudo-irreversible inhibition of human serum BChE assessed as enzyme recovery activity at IC50 using undiluted compound relative to control; assay type: cell-free; design: scale not given: the % may be the effect or the level left
Danio rerio [3] = species on record: Danio rerio; test: Antialzheimer activity against 3 dpf zebrafish model of AlCl3-induced AD assessed as change in motility distance at 8 uM (reference value: 5204 mm); assay type: functional
Danio rerio [4] = species on record: Danio rerio; test: Antialzheimer activity against 3 dpf zebrafish model of AlCl3-induced AD assessed as efficacy on motility distance at 8 uM relative to control; assay type: functional
Danio rerio [5] = species on record: Danio rerio; test: Antialzheimer activity against 3 dpf zebrafish model of AlCl3-induced AD assessed as motility by measuring change in speed at 8 uM (reference value: 1.05 mm/s); assay type: functional
Danio rerio [6] = species on record: Danio rerio; test: Antialzheimer activity against 3 dpf zebrafish model of AlCl3-induced AD assessed as efficacy on speed change at 8 uM relative to control; assay type: functional
[7] = Antioxidant activity of compound assessed as trolox equivalent antioxidant capacity by ORAC-FL assay; assay type: functional
Acetylcholinesterase [8] = molecular target: T2, Acetylcholinesterase (Rattus norvegicus, UniProt P37136); test: Inhibition of rat cortex AChE using acetylthiocholine iodide as substrate measured after 15 mins by Ellman's method; assay type: tissue-based
T2 sequence (P37136 whole entry): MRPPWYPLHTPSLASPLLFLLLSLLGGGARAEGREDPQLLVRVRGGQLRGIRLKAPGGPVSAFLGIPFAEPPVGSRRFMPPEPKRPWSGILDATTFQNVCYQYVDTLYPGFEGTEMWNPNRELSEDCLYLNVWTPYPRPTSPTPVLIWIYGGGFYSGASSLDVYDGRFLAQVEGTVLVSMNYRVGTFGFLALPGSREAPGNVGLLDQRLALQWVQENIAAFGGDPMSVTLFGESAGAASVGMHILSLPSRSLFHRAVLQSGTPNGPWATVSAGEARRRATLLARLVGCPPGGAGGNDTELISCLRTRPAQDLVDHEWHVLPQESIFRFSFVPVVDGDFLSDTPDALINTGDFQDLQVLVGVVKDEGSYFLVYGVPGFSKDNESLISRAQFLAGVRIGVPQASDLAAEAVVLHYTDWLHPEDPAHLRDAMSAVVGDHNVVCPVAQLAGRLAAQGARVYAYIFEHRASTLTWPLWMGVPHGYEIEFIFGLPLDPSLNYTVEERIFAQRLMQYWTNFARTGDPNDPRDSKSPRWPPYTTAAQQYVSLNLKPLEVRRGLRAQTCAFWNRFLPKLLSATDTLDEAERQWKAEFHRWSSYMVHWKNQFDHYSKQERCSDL

Butyrylcholinesterase = Butyrylcholinesterase (Rattus norvegicus, UniProt Q9JKC1); test: Inhibition of rat serum BChE using acetylthiocholine iodide as substrate measured after 15 mins by Ellman's method; assay type: cell-free
Butyrylcholinesterase, sequence (Q9JKC1 whole entry): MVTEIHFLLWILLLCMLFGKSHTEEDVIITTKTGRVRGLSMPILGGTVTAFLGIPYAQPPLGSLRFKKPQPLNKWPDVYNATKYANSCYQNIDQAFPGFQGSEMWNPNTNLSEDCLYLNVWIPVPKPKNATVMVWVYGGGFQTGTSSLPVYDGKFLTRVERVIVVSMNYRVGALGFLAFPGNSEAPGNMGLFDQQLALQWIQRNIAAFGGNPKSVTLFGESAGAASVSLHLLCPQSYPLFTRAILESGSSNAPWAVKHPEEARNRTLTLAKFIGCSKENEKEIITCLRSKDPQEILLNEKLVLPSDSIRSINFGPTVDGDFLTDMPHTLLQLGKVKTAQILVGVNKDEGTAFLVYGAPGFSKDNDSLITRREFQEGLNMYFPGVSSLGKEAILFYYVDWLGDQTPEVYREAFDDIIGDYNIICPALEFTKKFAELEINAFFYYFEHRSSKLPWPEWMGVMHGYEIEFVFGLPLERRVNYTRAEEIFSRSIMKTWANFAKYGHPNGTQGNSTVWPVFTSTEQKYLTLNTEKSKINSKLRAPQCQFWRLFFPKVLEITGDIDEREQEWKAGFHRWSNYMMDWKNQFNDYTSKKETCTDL

[9] = molecular target: Amyloid-beta precursor protein (Homo sapiens) (UniProt P05067); test: Inhibition of self-induced amyloid beta (1 to 42) (unknown origin) aggregation at 25 uM by ThT fluorescence assay relative to control
Amyloid-beta precursor protein (Homo sapiens), sequence (P05067 whole entry): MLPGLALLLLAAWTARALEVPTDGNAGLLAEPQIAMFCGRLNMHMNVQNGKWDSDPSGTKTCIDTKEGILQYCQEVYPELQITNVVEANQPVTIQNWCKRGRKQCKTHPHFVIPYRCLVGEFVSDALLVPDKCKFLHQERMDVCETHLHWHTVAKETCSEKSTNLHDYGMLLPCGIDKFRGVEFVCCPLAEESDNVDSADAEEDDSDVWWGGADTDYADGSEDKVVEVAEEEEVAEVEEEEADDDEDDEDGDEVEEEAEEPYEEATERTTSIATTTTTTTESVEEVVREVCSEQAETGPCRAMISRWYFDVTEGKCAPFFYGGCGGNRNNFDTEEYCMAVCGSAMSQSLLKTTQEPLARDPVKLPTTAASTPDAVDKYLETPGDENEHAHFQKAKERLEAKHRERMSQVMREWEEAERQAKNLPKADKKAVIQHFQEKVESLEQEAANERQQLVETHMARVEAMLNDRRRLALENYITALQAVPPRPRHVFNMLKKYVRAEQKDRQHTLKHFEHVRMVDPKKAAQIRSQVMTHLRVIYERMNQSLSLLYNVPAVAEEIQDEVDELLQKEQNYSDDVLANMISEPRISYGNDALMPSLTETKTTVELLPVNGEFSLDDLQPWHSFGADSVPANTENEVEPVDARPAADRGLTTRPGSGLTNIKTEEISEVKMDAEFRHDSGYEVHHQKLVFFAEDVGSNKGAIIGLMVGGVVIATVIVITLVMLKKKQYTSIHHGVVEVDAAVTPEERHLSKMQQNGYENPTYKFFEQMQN

Acetylcholinesterase [10] = molecular target: Acetylcholinesterase (Homo sapiens, UniProt P22303); test: Inhibition of human erythrocytes AChE using acetylthiocholine iodide as substrate measured after 15 mins by Ellman's method; assay type: tissue-based, Erythrocyte
Acetylcholinesterase (Homo sapiens, UniProt P22303), sequence (P22303 whole entry): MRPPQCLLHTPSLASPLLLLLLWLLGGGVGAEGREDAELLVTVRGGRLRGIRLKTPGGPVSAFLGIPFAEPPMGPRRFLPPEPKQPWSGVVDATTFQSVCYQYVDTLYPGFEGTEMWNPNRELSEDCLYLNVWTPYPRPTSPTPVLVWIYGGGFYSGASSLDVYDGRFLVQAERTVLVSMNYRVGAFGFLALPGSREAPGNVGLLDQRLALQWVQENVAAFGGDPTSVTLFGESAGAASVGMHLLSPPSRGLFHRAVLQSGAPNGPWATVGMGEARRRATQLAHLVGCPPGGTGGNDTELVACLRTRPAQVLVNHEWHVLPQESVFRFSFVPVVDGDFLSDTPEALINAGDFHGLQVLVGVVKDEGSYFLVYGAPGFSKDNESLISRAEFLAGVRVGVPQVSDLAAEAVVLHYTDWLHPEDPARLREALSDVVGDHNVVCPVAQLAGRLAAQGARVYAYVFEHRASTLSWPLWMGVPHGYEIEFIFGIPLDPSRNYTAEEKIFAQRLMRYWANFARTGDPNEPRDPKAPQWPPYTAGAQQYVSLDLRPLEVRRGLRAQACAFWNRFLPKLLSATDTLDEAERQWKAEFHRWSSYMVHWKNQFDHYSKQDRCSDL

Cholinesterase [11] = molecular target: T1, Cholinesterase; test: Inhibition of human serum BChE using acetylthiocholine iodide as substrate measured after 15 mins by Ellman's method; assay type: cell-free
[12] = Inhibition of copper-induced amyloid beta (1 to 42) (unknown origin) aggregation at 25 uM by ThT fluorescence assay relative to control
[13] = Disaggregation of Copper-induced amyloid beta (1 to 42) (unknown origin) preformed fibrils at 25 uM by ThT fluorescence assay relative to control
[14] = Inhibition of copper-induced amyloid beta (1 to 42) (unknown origin) aggregation measured after 24 hrs by TEM analysis
[15] = Disaggregation of Copper-induced amyloid beta (1 to 42) (unknown origin) preformed fibrils measured after 48 hrs by TEM analysis

COc1cc2c(cc1OC)C(=O)C(CC1CCN(Cc3ccccc3)CC1)C2 (configuration not stated) [DONEPEZIL]
Activity (Cholinesterase [1]): 60.3%
Activity (Cholinesterase [2]): 49.6%
Activity (Danio rerio [3]): 6361 mm
Efficacy (Danio rerio [4]): 55%
Activity (Danio rerio [5]): 1.91 millimeter/sec
Efficacy (Danio rerio [6]): 66%

CN(C)C(=O)Oc1ccc(-c2cc(=O)c3c(O)cc(OC(=O)N(C)C)cc3o2)cc1
Activity [7]: 1.1 equiv
IC50 (Acetylcholinesterase [8]): 9.2 µM
IC50 (Butyrylcholinesterase): 23.7 µM
inhibition [9]: 79.2%

CON(C)C(=O)Oc1ccc(-c2cc(=O)c3c(O)cc(OC(=O)N(C)OC)cc3o2)cc1
Activity [7]: 1.1 equiv
IC50 (Acetylcholinesterase [8]): 6.8 µM
IC50 (Butyrylcholinesterase): 17.2 µM
IC50 (Acetylcholinesterase [10]): 10.2 µM
IC50 (Cholinesterase [11]): 22.6 µM
inhibition [9]: 76.8%

O=C(Oc1ccc(-c2cc(=O)c3c(O)cc(OC(=O)N4CCCC4)cc3o2)cc1)N1CCCC1
Activity [7]: 1.2 equiv
IC50 (Acetylcholinesterase [8]): 13.7 µM
IC50 (Butyrylcholinesterase): 26.9 µM
inhibition [9]: 73.7%

O=C(Oc1ccc(-c2cc(=O)c3c(O)cc(OC(=O)N4CCOCC4)cc3o2)cc1)N1CCOCC1
Activity [7]: 1.1 equiv
IC50 (Acetylcholinesterase [8]): 11.5 µM
IC50 (Butyrylcholinesterase): 18.6 µM
inhibition [9]: 71.5%

COc1cc(/C=C/C(=O)CC(=O)/C=C/c2ccc(O)c(OC)c2)ccc1O
inhibition [12]: 53.6%
Activity [13]: 56.1%
inhibition [14]: Active
Activity [15]: Active

O=C(Oc1ccc(-c2cc(=O)c3c(O)cc(OC(=O)N(c4ccccc4)c4ccccc4)cc3o2)cc1)N(c1ccccc1)c1ccccc1
Activity [7]: 1 equiv
IC50 (Acetylcholinesterase [8]): 31.9 µM
IC50 (Butyrylcholinesterase): 37.6 µM
inhibition [9]: 70.9%
